Assay results published in patent US6013659A, “Methods of reducing tumor colony number using novel benzothiazole compounds” (University of Pittsburgh, priority 1998, dated 2000).
Like-named read-outs stand apart in the source and are kept apart here.

Experiments:
[1] = tested on: B16 melanoma pulmonary metastases; experiment: Early B16 pulmonary metastasis model (Day 4 B16 Model), A-NK cell adoptive immunotherapy; assay type: in vivo, C57BL/6 mice; conditions: for effect on reduction of B16 melanoma pulmonary metastases mediated by A-NK cell adoptive immunotherapy: A-NK cells administered on day 4; for effect on anti-metastatic therapeutic effect of adoptively transferred A-NK cells: conclusion from the two examples; for significance of reduction in tumor burden (in words): compound B experiments (Table 2), three experiments
Protocol: The B16 F1 melanoma model system, herein after referred to as B16 melanoma model system, is recognized as being highly resistant to treatment with many standard clinically used anti-cancer agents. Therefore, it was selected for testing because it is known to be reflective of the clinical situation for advanced melanoma.
A-NK cells were prepared from mouse spleens. All procedures were carried out in a laminar flow hood using sterile reagents and equipment. Briefly, a single cell suspension was prepared by gently mashing the spleens through a 40 mesh stainless steel screen into complete media (CM) which consisted of RPMI 1640 supplemented with 10% heat-inactivated fetal bovine serum, 100 U/ml penicillin, 100 μg/ml streptomycin sulfate, 50 μg/ml gentamicin sulfate, 2 mM L-glutamine, 5×10^-5 M 2-mercaptoethanol and 1% MEM non-essential amino acids. The erythrocytes in the resulting suspension were lysed and the suspension was centrifuged and washed twice with CM. Splencytes were cultured in T-150 flasks at 1.5×10^8 per cells per flask (A flasks) in 50 ml of CM containing 6000 IU rhIL-2/ml. […] On day 6 the A-NK cells were harvested.
Referring to FIG. 1 which illustrated a flow diagram of procedures for tumor metastasis system, A-NK generation, therapy and analysis for arly B16 tumors used in the present invention. All experimental groups initially contained at least 7 animals. A-NK cell generation was started at day -2 and the culture was expanded on days 0 and 1 as described above.
Separately on day 0, B16 tumor cells (2×10^5 i.v.) were injected into C57BL/6 mice. On days 0, 1, 2, 3 and 4, a benzothiazole compound of formula I (100 mg/kg, p.o.) was administered to the mice. On day 3 some animals received cyclophosphamide (300 mg/kg., i.p.) which is a standard chemotherapeutic drug.
Control mice received injections of vehicle diluent (1% gum arabic). […] On day 10, the mice were sacrificed, their lungs removed and the rumor colonies counted.

[2] = tested on: B16 melanoma pulmonary metastases; conditions: 216 h
Protocol: A-NK cells were prepared from mouse spleens. All procedures were carried out in a laminar flow hood using sterile reagents and equipment. Briefly, a single cell suspension was prepared by gently mashing the spleens through a 40 mesh stainless steel screen into complete media (CM) which consisted of RPMI 1640 supplemented with 10% heat-inactivated fetal bovine serum, 100 U/ml penicillin, 100 μg/ml streptomycin sulfate, 50 μg/ml gentamicin sulfate, 2 mM L-glutamine, 5×10^-5 M 2-mercaptoethanol and 1% MEM non-essential amino acids. The erythrocytes in the resulting suspension were lysed and the suspension was centrifuged and washed twice with CM. Splencytes were cultured in T-150 flasks at 1.5×10^8 per cells per flask (A flasks) in 50 ml of CM containing 6000 IU rhIL-2/ml. After 2 days the media and the non-adherent cells from the A flasks were transferred into new T-150 flasks (25 ml per flask--B flasks) and fresh CM+IL-2 (25 ml) was placed in the A flasks. The next day (day 3) the non-adherent cells and media from the B flasks were transferred to an equal number of T-150 C flasks and fresh CM+IL-2 was placed on the B flasks. […]
On day 8, 3-4×10^7 A-NK cells plus 120,000 IU of IL-2 were adaptively transferred into tumor-bearing mice. […] On day 9, the mice were sacrificed, their lungs removed and the tumor colonies counted.

[3] = in vivo; design: species or system mice; conditions: mouse, po, 100 mg/kg
Protocol: (§1) The compound B of the present invention has been tested for its pharmacokinetics and toxicity in mice. As shown in FIG. 3 peak levels of compound B occurred in the liver 1 h after p.o. administration of a single 100 mg/kg dose. […] Mice were dosed for 5 consecutive days with 0-300 mg/kg of compound B in 1% gum arabic (p.o.). Their weight was measured in 1 week intervals and at 4 weeks the animals were sacrificed and their organ weights measured.

[4] = Subacute toxicity study in mice; assay type: in vivo; conditions: 0-300 mg/kg p.o. for 5 consecutive days, in 1% gum arabic
Protocol: as §1

| SMILES | effect on reduction of B16 melanoma pulmonary metastases mediated by A-NK cell adoptive immunotherapy [1] | reduction of tumor burden (average) ([1]; A-NK cells on day 4, compound A in combination with A-NK cells) | Number of Pulmonary Metastases (± standard deviation) ([1]; Table 1, experiment 1, Compound A + A-NK Cells (with IL-2), 100 mg/kg p.o. days 0-4, control 59 ± 41, *p < 0.05 vs. control) | Number of Pulmonary Metastases (± standard deviation) ([1]; Table 1, experiment 2, Compound A + A-NK Cells (with IL-2), 100 mg/kg p.o. days 0-4, control 32 ± 22, *p < 0.05 vs. control) | Number of Pulmonary Metastases (± standard deviation) ([1]; Table 1, experiment 3, Compound A + A-NK Cells (with IL-2), 100 mg/kg p.o. days 0-4, control 222 ± 74, **p < 0.02 vs. control) | effect on anti-metastatic therapeutic effect of adoptively transferred A-NK cells [1] | reduction of tumor burden (average) [2] | Number of Pulmonary Metastases (± standard deviation) ([1]; Table 1, experiment 1, given without compound A) | Number of Pulmonary Metastases (± standard deviation) ([1]; Table 1, experiment 2, given without compound A) | Number of Pulmonary Metastases (± standard deviation) ([1]; Table 1, experiment 3, given without compound A, cyclophosphamide *p < 0.05 vs. control) | Number of Pulmonary Metastases (± standard deviation) ([1]; Table 2, experiment 1, given without compound B) | Number of Pulmonary Metastases (± standard deviation) ([1]; Table 2, experiment 2, given without compound B) | Number of Pulmonary Metastases (± standard deviation) ([1]; Table 2, experiment 3, given without compound B) | significance of reduction in tumor burden (in words) [1] | Number of Pulmonary Metastases (± standard deviation) ([1]; Table 2, experiment 1, Compound B + A-NK Cells (with IL-2), 100 mg/kg p.o. days 0-4, control 125 ± 66, *p < 0.05 vs. control) | Number of Pulmonary Metastases (± standard deviation) ([1]; Table 2, experiment 2, Compound B + A-NK Cells (with IL-2), 100 mg/kg p.o. days 0-4, control 187 ± 114, *p < 0.05 vs. control) | Number of Pulmonary Metastases (± standard deviation) ([1]; Table 2, experiment 3, Compound B + A-NK Cells (with IL-2), 100 mg/kg p.o. days 0-4, control 199 ± 45, **p < 0.001 vs. control) | Tmax [3] | organ weight change ([4]; at 4 weeks) | body weight change ([4]; weekly weights to 4 weeks) |
| --- | --- | --- | --- | --- | --- | --- | --- | --- | --- | --- | --- | --- | --- | --- | --- | --- | --- | --- | --- | --- |
| COc1cccc2sc(-c3ccc(C(C)(C)C)cc3)nc12 [Compound A, 4-Methoxy-2-(4-t-butylphenyl)benzothiazole] | enhanced the reduction | 64% | 24 ± 19 | 13 ± 7 | 58 ± 35 | augment the anti-metastatic therapeutic effect | 38% |  |  |  |  |  |  |  |  |  |  |  |  |  |
| O=P1(N(CCCl)CCCl)NCCCO1 (centres unmarked) [Cyclophosphamide, cyclophosphamide, reference compound] |  |  |  |  |  |  |  | 33 ± 25 | 18 ± 12 | 81 ± 60 | 135 ± 55 | 156 ± 120 | 272 ± 110 | neither A-NK cells alone or cyclophosphamide yielded a significant reduction in tumor burden |  |  |  |  |  |  |
| COc1cccc2sc(-c3ccc(C(F)(F)F)cc3)nc12 [Compound B, 4-Methoxy-2-(4-trifluoromethylphenyl) benzothiazole] | enhanced the reduction |  |  |  |  | augment the anti-metastatic therapeutic effect |  |  |  |  |  |  |  | Significant reduction in tumor burden | 66 ± 39 | 88 ± 49 | 88 ± 60 | 1 h | no significant difference | no significant difference |
